In patent publication US9382267B2, “Small molecule inhibitors of nicotinamide phosphoribosyltransferase (NAMPT)” (The Curators of the University of Missouri, priority 2011, dated 2016):
Read-outs that look alike come from different tables or passages of the source.

Assays:
[1] = system: DLD1 (Colon) human tumor cell line; test: MTT assay, DLD1; format: cell-based
Method: (§1) A549, DLD1, T47D and PC3 were purchased from ATCC (Manassas, Va.). MTT assay kit was purchased from Promega (Madison, Wis.). FK866 and NMN were purchased from Enzo Life Sciences (Farmingdale, N.Y.) and Sigma (St Louis, Mo.) respectively.
(§2) Additional MTT assays are show in FIGS. 11(A)-(D) and FIG. 12 for compounds (33)-(37).
(§3) The assay was performed according to the manufacturers protocol (CycLex NAMPT Colorimetric Assay Kit, MBL International Corp., Woburn, Mass.). The NAMPT assay was performed according manufacturers protocol. Briefly we used the “1-Step Assay Method” for which following reagents were mixed to make assay buffer and kept at ice before starting the assay: 10 μL each of 10× Nampt assay buffer, nicotinamide, PRPP, ATP and EtOH; 2 μL each of recombinant NMNAT1, WST-1, ADH, diaphorase and D2O. The Nampt inhibition assay was performed by mixing 2 μl of various concentrations (to make 1 pM-100 nM) of FK866 or (6) (or 2 μL DMSO as vehicle control) with the following: 2 μL recombinant Nampt and 36 μL D2O. The reaction was initiated by adding 60 μL of 1-Step Assay Buffer to each well and mixed thoroughly followed by incubation at 30° C. for 20 mins. After this period, the absorbance at 450 nm was measured and compared with the positive control. […] TABLE 4 lists measured Half-Maximal Inhibitory Concentrations (IC50) against Human Tumor Cell Lines A549 (Lung), DLD1 (Colon), and T47D (Breast).

[2] = system: T47D (Breast) human tumor cell line; test: MTT assay, T47D; format: cell-based
Method: as §1, §2, §3

[3] = system: A549 cells; test: Cell rescue assay with nicotinamide mononucleotide (NMN); format: cell-based, human; details: A549 cells treated with 10 nM agent; 1, 10 or 100 μM NMN; 72 h; MTT
Method: A549 cells were treated with 10 nM (1), (5), (6), or (7). Error bars represent the mean±SD. Cell viability was measured using the MTT assay. Each measurement was repeated 4 times.
Cell rescue assays were conducted using Nicotinamide Mononucleotide (NMN) as described by Busso et al. (Busso, N.; Karababa, M.; Nobile, M.; Rolaz, A.; Van Gool, F.; Galli, M.; Leo, O.; So, A.; De Smedt, T. Pharmacological inhibition of nicotinamide phosphoribosyltransferase/visfatin enzymatic activityidentifies a new inflammatory pathway linked to NAD. PLoS One 2008, […], e2267.) Briefly, A549 and DLD1 cells were plated at a density of 10,000 cells per well in 96 well plates for overnight. Cells were then treated with 10 nM concentrations of agents (1), (5)-(7). Simultaneously, concentrations of 1, 10 or 100 μM NMN were added to the cultures. Cultures were then continued for 72 h. MTT reagent was added to the cells after 72 h for a period of 3 h and then MTT crystals were solubilized using solubilization buffer. Readings were taken at 570 nm wavelength. Control cells were considered as 100% survival to plot the inhibition and rescue graph. The experiments were repeated four times.

[4] = system: DLD1; test: Scratch test (wound healing) assay; format: cell-based, human; details: for relative potencies of the compounds: wound healing experiments, consistent with cell viability assays; for inhibition of cancer cell migration: 1 nM test agent, 24 h, FIG. 9
Method: The antimigratory effects of compounds (5)-(7) were compared with FK866 by employing a wound healing or scratch test analysis using various cell cancer lines. The assay measures the ability of a drug to inhibit cancer cell migration across a gap “scratched” in a confluent layer of cells. The cells were imaged immediately after the formation of the wound and then incubated with 1 nM concentrations of each test agent. After 24 h, the wounds were imaged again and compared with a control group of untreated cells. […] The results of the wound healing experiments are consistent with those from the cell viability assays with regard to the relative potencies of the compounds (6)>(7)>(5)>FK866.

[5] = system: A549 human lung cancer cell line; test: MTT assay, A549; format: cell-based; details: A549 (Lung) human tumor cell line
Method: as §1, §2, §3

| IC50 [1] [nM] | IC50 [2] [nM] | IC50 [5] [nM] | IC50 ([1]; DLD-1) [nM] | Compound | cell rescue by NMN [3] | relative potencies of the compounds [4] | inhibition of cancer cell migration [4] |
| --- | --- | --- | --- | --- | --- | --- | --- |
| 2.2 ± 0.12 | 0.58 ± 0.03 | 0.99 ± 0.03 |  | 1-(4′-(Trans-3″-(3′″-pyridyl)acrylamido)butyl)-1,12-dicarba-closo-dodecaborane [Compound 7] | nearly complete rescue | (6)>(7)>(5)>FK866 |  |
| 0.31 ± 0.01 | 0.32 ± 0.02 | 0.41 ± 0.01 |  | 1-(4′-(Trans-3″-(3′″pyridyl)acrylamido)butyl)-1,7-dicarba-closo-dodecaborane [Compound 6] | nearly complete rescue | (6)>(7)>(5)>FK866 | highest potency |
|  | 3.2 ± 0.16 | 1.62 ± 0.04 | 3.14 ± 0.11 | O=C(/C=C/c1cccnc1)NCCCCC1CCN(C(=O)c2ccccc2)CC1 [Compound 1, reference compound] | nearly complete rescue | (6)>(7)>(5)>FK866 | partially inhibited cell migration |
|  | 186 ± 4.1 | 88.9 ± 1.1 | 20.3 ± 0.44 | O=C(/C=C/c1cccnc1)NCCC#CC12CC3CC(CC(C3)C1)C2 [Compound 4] |  |  |  |
